Laboratory results as given in publication PMC11062894, “Protein-based bandpass filters for controlling cellular signaling with chemical inputs” (Nature Chemical Biology, 2023).
Values joined by “and” are separate entries in the source; they are usually repeats but may differ in a detail not shown here. Identical values can stand only once.

Tested on: GEMS receptors with CBPvene (Bcl2–LD3 and Bcl2high variants), STAT3-driven SEAP in HEK293T cells
Assay: GEMS SEAP reporter assay, CBPvene (Bcl2high, LD3-v and Bcl2-v variants) with venetoclax
Type: cell-based
[1] = CBPVene-v4-LD3v1, Venetoclax 10 nM
[2] = CBPVene-v4-LD3v1, Venetoclax 31.6 nM
[3] = CBPVene-v4-LD3v1, Venetoclax 100 nM
[4] = CBPVene-v4-LD3v1, Venetoclax 316 nM
[5] = CBPVene-v4-LD3v1, Venetoclax 1000 nM
[6] = CBPVene-v4-LD3v1, Venetoclax 3160 nM
[7] = CBPVene-v4-LD3v1, Venetoclax 10000 nM
[8] = CBPVene-v5, Venetoclax 10000 nM
[9] = CBPVene-v5-Bcl2v2, Venetoclax 1 nM
[10] = CBPVene-v5-Bcl2v2, Venetoclax 3.16 nM
[11] = CBPVene-v5-Bcl2v2, Venetoclax 10 nM
[12] = CBPVene-v5-Bcl2v2, Venetoclax 31.6 nM
[13] = CBPVene-v5-Bcl2v2, Venetoclax 316 nM

CC1(C)CCC(CN2CCN(c3ccc(C(=O)NS(=O)(=O)c4ccc(NCC5CCOCC5)c([N+](=O)[O-])c4)c(Oc4cnc5[nH]ccc5c4)c3)CC2)=C(c2ccc(Cl)cc2)C1 [Venetoclax] was tested, and the “Raw data Figure 5c” value [1] was 19.6376 and 23.1796 and 21.4266, the “Raw data of Independent repeat of CBPVene-v4 vs CBPVene-v4-LD3v1” value (shortened to “Raw data … vs CBPVene-v4-LD3v1”) [1] was 12.5143 and 15.3613 and 14.2991 and the “Normalized data Figure 5c” value [2] was 33.2758 and 29.1991 and 22.5234. The “Raw data Figure 5c” value [2] was 32.1154 and 36.1941 and 32.5835, the “Raw data … vs CBPVene-v4-LD3v1” value [2] was 19.3224 and 24.3766 and 24.2685 and the “Normalized data Figure 5c” value [3] was 89.5011 and 73.3407 and 58.8514. For the same compound, the “Raw data Figure 5c” value [3] was 86.38 and 90.9103 and 85.1375, the “Raw data … vs CBPVene-v4-LD3v1” value [3] was 49.6855 and 59.8551 and 68.5591 and the “Normalized data Figure 5c” value [4] was 100. The “Raw data Figure 5c” value [4] was 96.5128 and 123.956 and 144.665, the “Raw data … vs CBPVene-v4-LD3v1” value [4] was 75.2259 and 81.7396 and 83.8142 and the “Normalized data Figure 5c” value [5] was 92.1259 and 70.027 and 66.0891. For the same compound, the “Raw data Figure 5c” value [5] was 88.9133 and 86.8028 and 95.608, the “Raw data … vs CBPVene-v4-LD3v1” value [5] was 55.2813 and 57.5308 and 55.9265 and the “Normalized data Figure 5c” value [6] was 41.115 and 38.8368 and 34.8585. The “Raw data Figure 5c” value [6] was 39.6812 and 48.1406 and 50.4281, the “Raw data … vs CBPVene-v4-LD3v1” value [6] was 23.1338 and 27.3241 and 29.5684 and the “Normalized data Figure 5c” value [7] was 12.9494 and 11.4961 and 9.578. For the same compound, the “Raw data Figure 5c” value [7] was 12.4978 and 14.2501 and 13.8554, the “Raw data … vs CBPVene-v4-LD3v1” value [7] was 8.884 and 10.4059 and 11.3993 and the “Raw data of Independent repeat of CBPVene-v5 vs CBPVene-v5-LD3v1” value (“Raw data … vs CBPVene-v5-LD3v1” below) (CBPVene-v5, Venetoclax 0.01 nM) was 29.6718 and 24.6839 and 26.501. For the same compound, the “Normalized data Figure 5c” value (CBPVene-v5, Venetoclax 1 nM) was 7.442 and 6.278 and 6.718, the “Raw data Figure 5c” value (CBPVene-v5, Venetoclax 1 nM) was 29.5956 and 26.0853 and 29.9849 and the “Normalized data Figure 5c” value (CBPVene-v5, Venetoclax 3.16 nM) was 9.477 and 7.971 and 8.021. The “Normalized data Figure 5f” value (CBPVene-v5, Venetoclax 3.16 nM) was 5.255 and 4.508 and 3.901, the “Raw data Figure 5c” value (CBPVene-v5, Venetoclax 3.16 nM) was 37.6876 and 33.119 and 35.8015 and the “Raw data Figure 5f” value (CBPVene-v5, Venetoclax 3.16 nM) was 30.3563 and 26.3908 and 26.6345. The “Raw data … vs CBPVene-v5-LD3v1” value (CBPVene-v5, Venetoclax 3.16 nM) was 30.3563 and 26.3908 and 26.6345, the “Normalized data Figure 5c” value (CBPVene-v5, Venetoclax 10 nM) was 11.5779 and 11.0151 and 10.8723 and the “Normalized data Figure 5f” value (CBPVene-v5, Venetoclax 10 nM) was 9.191 and 6.8128 and 6.589. For the same compound, the “Raw data Figure 5c” value (CBPVene-v5, Venetoclax 10 nM) was 46.0425 and 45.7651 and 48.5281, the “Raw data Figure 5f” value (CBPVene-v5, Venetoclax 10 nM) was 53.0904 and 39.8802 and 44.9895 and the “Raw data … vs CBPVene-v5-LD3v1” value (CBPVene-v5, Venetoclax 10 nM) was 53.0904 and 39.8802 and 44.9895. The “Normalized data Figure 5c” value (CBPVene-v5, Venetoclax 31.6 nM) was 35.6775 and 32.4284 and 35.7596, the “Normalized data Figure 5f” value (CBPVene-v5, Venetoclax 31.6 nM) was 4.7681 and 4.341 and 3.633 and the “Raw data Figure 5c” value (CBPVene-v5, Venetoclax 31.6 nM) was 141.881 and 134.732 and 159.612. For the same compound, the “Raw data Figure 5f” value (CBPVene-v5, Venetoclax 31.6 nM) was 27.5418 and 25.4102 and 24.8086, the “Raw data … vs CBPVene-v5-LD3v1” value (CBPVene-v5, Venetoclax 31.6 nM) was 27.5418 and 25.4102 and 24.8086 and the “Normalized data Figure 5c” value (CBPVene-v5, Venetoclax 100 nM) was 85.9499 and 82.2485 and 75.1301. For the same compound, the “Normalized data Figure 5f” value (CBPVene-v5, Venetoclax 100 nM) was 23.389 and 18.2031 and 16.6277, the “Raw data Figure 5c” value (CBPVene-v5, Venetoclax 100 nM) was 341.802 and the “Raw data Figure 5f” value (CBPVene-v5, Venetoclax 100 nM) was 135.101. The “Raw data … vs CBPVene-v5-LD3v1” value (CBPVene-v5, Venetoclax 100 nM) was 135.101 and 106.556 and 113.538, the “Normalized data Figure 5c” value (CBPVene-v5, Venetoclax 316 nM) was 100 and 99.2625 and the “Normalized data Figure 5f” value (CBPVene-v5, Venetoclax 316 nM) was 90.5991 and 73.5543 and 71.7832. The “Raw data Figure 5c” value (CBPVene-v5, Venetoclax 316 nM) was 397.676 and 415.475 and 443.055, the “Raw data Figure 5f” value (CBPVene-v5, Venetoclax 316 nM) was 523.324 and 430.565 and 490.151 and the “Raw data … vs CBPVene-v5-LD3v1” value (CBPVene-v5, Venetoclax 316 nM) was 523.324 and 430.565 and 490.151. For the same compound, the “Normalized data Figure 5c” value (CBPVene-v5, Venetoclax 1000 nM) was 94.7389 and 93.854 and 100, the “Normalized data Figure 5f” value (CBPVene-v5, Venetoclax 1000 nM) was 100 and the “Raw data Figure 5c” value (CBPVene-v5, Venetoclax 1000 nM) was 376.754 and 389.94 and 446.347. The “Raw data Figure 5f” value (CBPVene-v5, Venetoclax 1000 nM) was 577.626 and 585.371 and 682.822, the “Raw data … vs CBPVene-v5-LD3v1” value (CBPVene-v5, Venetoclax 1000 nM) was 585.371 and 682.822 and the “Normalized data Figure 5c” value (CBPVene-v5, Venetoclax 3160 nM) was 78.0027 and 76.1858 and 76.8944. For the same compound, the “Normalized data Figure 5f” value (CBPVene-v5, Venetoclax 3160 nM) was 79.8503 and 79.8999 and 73.1753, the “Raw data Figure 5c” value (CBPVene-v5, Venetoclax 3160 nM) was 310.198 and 316.533 and 343.216 and the “Raw data Figure 5f” value (CBPVene-v5, Venetoclax 3160 nM) was 461.236 and 467.711 and 499.656. The “Raw data … vs CBPVene-v5-LD3v1” value (CBPVene-v5, Venetoclax 3160 nM) was 461.236 and 467.711 and 499.656, the “Normalized data Figure 5c” value [8] was 34.0541 and 31.651 and 32.0007 and the “Normalized data Figure 5f” value [8] was 53.1633 and 46.1135 and 46.4962. For the same compound, the “Raw data Figure 5c” value [8] was 135.425 and 131.502 and 142.834, the “Raw data Figure 5f” value [8] was 307.085 and 269.935 and 317.486 and the “Normalized data Figure 5f” value [9] was 20.7725 and 19.0354 and 15.7869. The “Raw data Figure 5f” value [9] was 37.9718 and 36.6065 and 35.2814, the “Normalized data Figure 5f” value [10] was 20.3227 and 21.226 and 17.4104 and the “Raw data Figure 5f” value [10] was 37.1496 and 40.8191 and 38.9099. The “Normalized data Figure 5f” value [11] was 19.4559 and 21.7686 and 18.6086, the “Raw data Figure 5f” value [11] was 35.5651 and 41.8626 and 41.5876 and the “Normalized data Figure 5f” value [12] was 37.718 and 36.6086 and 30.2912. The “Raw data Figure 5f” value [12] was 68.9479 and 70.401 and 67.6966, the “Normalized data Figure 5f” value (CBPVene-v5-Bcl2v2, Venetoclax 100 nM) was 81.9466 and 81.1265 and 85.7326 and the “Normalized data Figure 5f” value [13] was 100. For the same compound, the “Raw data Figure 5f” value [13] was 182.798 and 192.307 and 223.486.
